We go through two molecules from patent US20250263376A1, “(E)-N-CINNAMOYLAMINOALKANOLS WITH MELANOGENESIS INHIBITORY ACTIVITY” (Uniwersytet Jagiellonski, priority 2024, published 2025).

The test system of data set [1] is Balb/c 3T3 murine fibroblast cell line. In words: Phototoxicity, neutral red uptake in Balb/c 3T3 fibroblasts. The following applies: for PIF (photoirritation factor): ratio of IC50 of unirradiated to irradiated cells; for cytotoxicity towards mouse fibroblasts: with and without UVA exposure. The method, then: d) Phototoxicity Assessment Using the Balb/c 3T3 Murine Fibroblast Cell Line
Balb/c 3T3 cells, which are an immortalized murine fibroblast cell line, were purchased at ATTC and cultured in the medium recommended by the manufacturer (DMEM GlutaMAX, newborn calf serum (BCS), antibiotics). After multiplication, cells were placed in 96-well plates, which were incubated for 24 hours, after which all wells of the plates were washed with 150 μL of balanced salt solution (HBSS). Then, after drying the plates, 100 μL of a solution of the tested compounds in HBSS with 2% FBS was added to each well and incubated for an hour. After this time, some of the plates were irradiated using the Suntest CPS+sunlight simulator from Atlas with appropriate filters cutting off radiation with a wavelength <320 nm (UVA radiation intensity 5 J/cm^2). The second part of the plates was placed in radiation-free conditions for the same period of time. After the exposure time, the liquid was removed from all plates and the wells were washed twice with 150 μL of HBSS, then supplemented with fresh culture medium and incubated for 24 hours in an incubator (37° C., 5% CO2). Viability was assessed in the neutral red uptake test, which is based on the ability of the dye to penetrate only into living cells. Dye uptake was confirmed by absorbance measurement at 540 nm. […] The appropriate coefficients were also calculated: mean phototoxic effect (MPE) and photoirritation factor (PIF). PIF is the ratio of the IC50 values of unirradiated to irradiated cells, while MPE is based on the comparison of concentration-response curves.

The test system of data set [2] is human reconstructed epidermis Episkin. In words: Skin permeation studies in reconstructed human epidermis Episkin. Type of data set: in vitro ADME. The method, then: The tested substance A-111 in a macrogol formulation (2% A-111 in the PEG400+PEG800 base) was applied onto the epidermis in an amount of approximately 10 mg/cm^2 (“finite dose application”) using a sterile inoculation loop. The amount applied was weighed accurately. As a control, a macrogol formulation without the test substance was applied onto the epidermis. The finished experimental plate was incubated at 32° C. At specific time intervals, aliquots of the receptor fluid (0.5 mL) were collected for the analysis and replaced with 0.5 mL of fresh receptor fluid. After 24 h of culture, all of the receptor fluid was collected. The examined tissue was washed with cotton buds soaked in methanol. The donor and receptor compartments were washed with methanol, and the epidermis was separated from the inserts and transferred to methanol. Samples were stored at −20° C. until analysis. The content (concentration) of the tested substance A-111 in the receptor fluid and in individual compartments: on the surface of the epidermis, in the epidermis, in the receptor fluid was determined using measurements in a microplate reader at 281 nm on 96-well plates transmitting ultraviolet radiation.
In order to confirm proper bioavailability, studies of the permeation of compound A-111 from a solution in PEG400 were performed in a model of reconstructed human epidermis. […] The tested substance A-111 was applied onto the epidermis in the form of a 2% PEG400 solution in an amount of 15 μL. The finished experimental plate was incubated at 32° C. At specific time intervals, aliquots of the receptor fluid (0.5 mL) were collected for the analysis and replaced with fresh fluid. After 24 h of culture, all of the receptor fluid was collected. The examined tissue was washed with cotton buds soaked in methanol. The donor and receptor compartments were washed with methanol, and the epidermis was separated from the inserts and transferred to methanol. The content (concentration) of the tested substance A-111 in the acceptor fluid and in individual compartments: on the surface of the epidermis, in the epidermis, in the receptor fluid was determined using measurements in a microplate reader at 281 nm on 96-well plates transmitting ultraviolet radiation.
Permeation studies of the A-111 compound from a cosmetic formulation were performed in a model of reconstructed human epidermis. […] 25 μL of the formulation containing the tested compound A-111 was applied to the epidermis. […] The content (concentration) of the tested substance A-111 in the receptor fluid and in individual compartments: on the surface of the epidermis, in the epidermis, in the receptor fluid was determined using measurements in a microplate reader at 281 nm on 96-well plates transmitting ultraviolet radiation.

For data set [3], the target named is T1, tyrosinase released from B16-F10 cells (Mus musculus, UniProt P11344).
T1 construct: endogenous in cells; host or cells: B16-F10 murine melanoma cells (alpha-MSH stimulated), Triton X-100 lysate
T1 sequence (P11344 19-533): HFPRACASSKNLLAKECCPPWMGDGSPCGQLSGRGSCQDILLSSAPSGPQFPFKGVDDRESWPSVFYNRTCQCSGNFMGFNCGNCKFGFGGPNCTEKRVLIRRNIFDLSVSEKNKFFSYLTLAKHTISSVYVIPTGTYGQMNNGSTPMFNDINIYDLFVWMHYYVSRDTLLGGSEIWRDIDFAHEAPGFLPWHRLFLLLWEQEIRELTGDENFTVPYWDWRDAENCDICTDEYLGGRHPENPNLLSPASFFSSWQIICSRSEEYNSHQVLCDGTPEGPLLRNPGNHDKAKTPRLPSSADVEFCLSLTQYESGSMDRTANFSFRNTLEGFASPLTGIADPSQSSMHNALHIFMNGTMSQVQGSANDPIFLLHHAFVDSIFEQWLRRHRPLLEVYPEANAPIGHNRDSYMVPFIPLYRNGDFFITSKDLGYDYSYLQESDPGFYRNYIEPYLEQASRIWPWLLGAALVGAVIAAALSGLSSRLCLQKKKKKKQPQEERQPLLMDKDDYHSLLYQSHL
The experiment in a line: Inhibition of tyrosinase activity released from B16-F10 cells. The following applies: 24 h incubation, α-MSH, L-DOPA 0.5 mM. Type of data set: cell-based, murine. The method, then: Inhibition of Tyrosinase Activity Released from B16-F10 Cells
50,000 cells were placed in each well of a 24-well plate (in F10-Ham medium, 1% FBS). After 24 h of culture, the tested compounds were added in fresh medium (DMEM, 1% FBS), with an additional 5 μM of a-melanocorticotropic hormone (a-MSH) in the medium to induce melanogenesis. Three wells on the plate constituted a control sample without the melanogenesis inducer (a-MSH) and without the tested compounds. After 24 hours of incubation under these conditions, the medium was removed and the cells were washed twice with PBS. 100 μL of lysis buffer composed of 90 μL of 50 mM potassium phosphate buffer, 5 μL of 0.1 mM phenylmethylsulfonyl fluoride and 5 μL of 1% Triton X-100 were added to the wells. The plates were placed at −80° C. for 30 minutes. Cell lysates were then centrifuged for 30 min (4° C., 12,000 rpm), and then 80 μL of the supernatant was transferred to 96-well plates. […] After a 30-minute incubation, the absorbance was measured at 475 nm using a microplate reader. The percentage of inhibition of tyrosinase activity was calculated using the formula: [(AC−AT)/Ac]×100, where AC—is the absorbance of the negative control (from wells in which cells were cultured without the tested compounds), AT—is the absorbance of the sample from wells in which cells were cultured in the presence of the test compound.

Regarding `O=C(/C=C/c1ccc(Cl)cc1)NCCCCCO` [Compound A-111, (2E)-3-(4-chlorophenyl)-N-(5-hydroxypentyl)prop-2-enamide], in data set [1], the phototoxic potential entry is “do not have phototoxic potential”, the “PIF (photoirritation factor)” value was “No phototoxicity” and the “cytotoxicity towards mouse fibroblasts” value was “devoid of cytotoxicity”. In data set [2] (2% A-111 in macrogol formulation (PEG400+PEG800), about 10 mg/cm^2, 24 h), the epidermal permeation entry is “crosses the epidermal barrier”. For the same molecule, the “accumulation in the epidermis” value in data set [2] (2% A-111 in macrogol formulation, 24 h) is “no accumulation”. Further, the epidermal permeation entry in data set [2] (2% PEG400 solution, 15 μL, 24 h) was “crosses the epidermal barrier”. The epidermal permeation entry in data set [2] (released from cosmetic formulation, 25 μL, 24 h) is listed as “crosses the epidermal barrier”. Besides, the “inhibition of tyrosinase released from B16-F10 cells” value in data set [3] is reported as “inhibit the activity of tyrosinase released from B16-F10 cells”.
As for `O=C(/C=C/c1ccccc1)NCCCCCO` [Compound A-133, (2E)-N-(5-hydroxypentyl)-3-phenylprop-2-enamide], in data set [1], the phototoxic potential result is “do not have phototoxic potential”, the “PIF (photoirritation factor)” value was “No phototoxicity” and the “cytotoxicity towards mouse fibroblasts” value is recorded as “devoid of cytotoxicity”.
